Data taken from patent publication US8697385B1, “Protein controlling synthesis of collagen and associated methods” (Florida State University Research Foundation, Inc., priority 2009, dated 2014).

Tests used:
[1] = tested on: primary scleroderma skin fibroblasts; experiment: Western blot analysis of cellular and medium collagen polypeptides, scleroderma fibroblasts; assay type: cell-based, human; conditions: 16 h, ML-7 40 μM, blebbistatin 100 μM; for secretion of collagen α1(I) polypeptide into the medium / secretion of collagen α2(I) polypeptide into the medium / secretion/expression of fibronectin: cytochalasin B 20 μM
Protocol: (§1) ML-7, blebbistatin, cytochalasin B, puromycin, and cycloheximide were purchased from Sigma. ML-7 was used at 40 μM, blebbistatin was used at 100 μM, and cytochalasin B was used at 20 μM. Cells were incubated with the drugs for 16 h before analysis. Puromycin (200 μg/ml) and cycloheximide (100 μg/ml) were added to the cells for 2 h. Human lung fibroblasts have been described previously.16 Scleroderma fibroblasts were purchased from the European Collection of Cell Cultures (cell line BM0070) and derived from the skin of a scleroderma patient. MEFs were derived from knock-in mice in which the 5′SL of the collagen α1(I) gene has been mutated (Parsons et al., submitted). Several independent cell isolates were used throughout the study. All cells were cultured in Dulbecco's modified Eagle's medium supplemented with 10% fetal bovine serum for up to 10 passages. Plasmid constructs and adenovirus preparation. The HA-tagged LARP6 clone and the deletion mutants have been described previously.^16 Adenoviruses were constructed by recloning of the constructs into the pAdCMVTRACK vector, followed by recombination with the pAdEasy vector and amplification, as described previously.^48 Expression of each construct was verified by Western blot analysis. The viruses made express both the full-size test protein and the green fluorescent protein (GFP), which is encoded by an independent transcription unit.^48 Expression of GFP served as control for viral transduction. RT-PCR analysis Total cellular RNA was isolated using an RNA isolation kit (Sigma). RT-PCRs were performed with 100 ng of total RNA or using rTth reverse transcriptase (Boca Scientific, Boca Raton, Fla.). [^32P]dCTP was included in the PCR step to label the products, which were resolved on sequencing gels, as described previously.^8,31,49,50 When RNA from polysomal fractions was analyzed, an equal aliquot of each fraction was used. The number of cycles was adjusted to within the linear range of the reaction. The primers used for RT-PCR were as follows: h-collagen α1(I), 5′ primer […] (SEQ ID NO:3) and 3′ primer […] (SEQ ID NO:4); h-collagen α2(I), 5′ primer […] (SEQ ID NO:5) and 3′ primer […] (SEQ ID NO:6).
(§2) Protein concentration was estimated by the Bradford assay, with bovine serum albumin as standard.^51 Western blot analyses of cellular proteins were performed using 50 μg of protein. For Western blot analysis of secreted proteins, equal numbers of cells were seeded, serum-free medium was added to the cells, and incubation continued for 3 h. The medium was collected, and an aliquot was analyzed directly by Western blot analysis. Use of serum free medium in collecting secreted proteins is essential because fetal calf serum contains substantial amounts of collagen and fibronectin.^15,31 For immunostaining, cells were seeded onto glass coverslips. After treatment, the cells were fixed with 4% paraformaldehyde for 30 min at room temperature and permeabilized with 0.5% Triton X-100 in phosphatebuffered saline (PBS) for 10 min. After the cells had been blocked with 10% goat serum/5% bovine serum albumin in PBS for 1 h at room temperature, they were incubated with primary antibody overnight at 4° C., washed, and visualized with AlexaFluor594-conjugated or Cy-2-conjugated secondary antibodies. The cells were mounted using VECTASHIELD mounting medium containing […], 6-diamidino-2-phenylindole (Vector Laboratories), and images were taken by a Leica TCS SP2 AOBS laser confocal microscope equipped with a Chameleon Ti: Sapphire multiphoton laser. Optical sections were processed with LCSLite software.
(§3) To assess the role of nonmuscle myosin in collagen synthesis, we disrupted nonmuscle myosin filaments in two different cell types: primary human lung fibroblasts and primary scleroderma skin fibroblasts. These cells are responsible for lung and skin fibrosis. […]

human lung fibroblasts = experiment: Western blot analysis of cellular and medium collagen polypeptides, lung fibroblasts; assay type: cell-based; conditions: 16 h, ML-7 40 μM, blebbistatin 100 μM, vs control cells; for secretion of collagen α1(I) polypeptide into the medium / secretion of collagen α2(I) polypeptide into the medium / secretion/expression of fibronectin: cytochalasin B 20 μM
Protocol: as §1, §2, §3

nonmuscle myosin IIB [2] = experiment: Immunoprecipitation of nonmuscle myosin IIB and RT-PCR of collagen mRNAs; assay type: cell-based, human; conditions: lung fibroblasts; cycloheximide 100 μg/ml or puromycin 200 μg/ml, 2 h
Protocol: ML-7, blebbistatin, cytochalasin B, puromycin, and cycloheximide were purchased from Sigma. ML-7 was used at 40 μM, blebbistatin was used at 100 μM, and cytochalasin B was used at 20 μM. Cells were incubated with the drugs for 16 h before analysis. Puromycin (200 μg/ml) and cycloheximide (100 μg/ml) were added to the cells for 2 h. Human lung fibroblasts have been described previously.16 Scleroderma fibroblasts were purchased from the European Collection of Cell Cultures (cell line BM0070) and derived from the skin of a scleroderma patient. MEFs were derived from knock-in mice in which the 5′SL of the collagen α1(I) gene has been mutated (Parsons et al., submitted). […] [^32P]dCTP was included in the PCR step to label the products, which were resolved on sequencing gels, as described previously.^8,31,49,50 When RNA from polysomal fractions was analyzed, an equal aliquot of each fraction was used. […]
One of the roles of nonmuscle myosin filaments may be to present collagen mRNAs to ribosomes. Therefore, we assessed if the association of collagen mRNAs with nonmuscle myosin is dependent on intact polysomes. […] We then immunoprecipitated nonmuscle myosin from lung fibroblasts treated with cycloheximide or puromycin and analyzed if this can change the pull-down of collagen mRNAs. As control, the association with vimentin was analyzed in the same samples (FIG. 9b). […]

fibronectin = target: T1, fibronectin (human, UniProt P02751 32-2477, limits assumed); experiment: co-immunoprecipitation with anti-HA antibody from human lung fibroblasts, Western blot with anti-fibronectin
T1 construct: Specificity control in the co-immunoprecipitations, detected with anti-fibronectin antibody
T1 sequence (P02751 32-2477 limits assumed): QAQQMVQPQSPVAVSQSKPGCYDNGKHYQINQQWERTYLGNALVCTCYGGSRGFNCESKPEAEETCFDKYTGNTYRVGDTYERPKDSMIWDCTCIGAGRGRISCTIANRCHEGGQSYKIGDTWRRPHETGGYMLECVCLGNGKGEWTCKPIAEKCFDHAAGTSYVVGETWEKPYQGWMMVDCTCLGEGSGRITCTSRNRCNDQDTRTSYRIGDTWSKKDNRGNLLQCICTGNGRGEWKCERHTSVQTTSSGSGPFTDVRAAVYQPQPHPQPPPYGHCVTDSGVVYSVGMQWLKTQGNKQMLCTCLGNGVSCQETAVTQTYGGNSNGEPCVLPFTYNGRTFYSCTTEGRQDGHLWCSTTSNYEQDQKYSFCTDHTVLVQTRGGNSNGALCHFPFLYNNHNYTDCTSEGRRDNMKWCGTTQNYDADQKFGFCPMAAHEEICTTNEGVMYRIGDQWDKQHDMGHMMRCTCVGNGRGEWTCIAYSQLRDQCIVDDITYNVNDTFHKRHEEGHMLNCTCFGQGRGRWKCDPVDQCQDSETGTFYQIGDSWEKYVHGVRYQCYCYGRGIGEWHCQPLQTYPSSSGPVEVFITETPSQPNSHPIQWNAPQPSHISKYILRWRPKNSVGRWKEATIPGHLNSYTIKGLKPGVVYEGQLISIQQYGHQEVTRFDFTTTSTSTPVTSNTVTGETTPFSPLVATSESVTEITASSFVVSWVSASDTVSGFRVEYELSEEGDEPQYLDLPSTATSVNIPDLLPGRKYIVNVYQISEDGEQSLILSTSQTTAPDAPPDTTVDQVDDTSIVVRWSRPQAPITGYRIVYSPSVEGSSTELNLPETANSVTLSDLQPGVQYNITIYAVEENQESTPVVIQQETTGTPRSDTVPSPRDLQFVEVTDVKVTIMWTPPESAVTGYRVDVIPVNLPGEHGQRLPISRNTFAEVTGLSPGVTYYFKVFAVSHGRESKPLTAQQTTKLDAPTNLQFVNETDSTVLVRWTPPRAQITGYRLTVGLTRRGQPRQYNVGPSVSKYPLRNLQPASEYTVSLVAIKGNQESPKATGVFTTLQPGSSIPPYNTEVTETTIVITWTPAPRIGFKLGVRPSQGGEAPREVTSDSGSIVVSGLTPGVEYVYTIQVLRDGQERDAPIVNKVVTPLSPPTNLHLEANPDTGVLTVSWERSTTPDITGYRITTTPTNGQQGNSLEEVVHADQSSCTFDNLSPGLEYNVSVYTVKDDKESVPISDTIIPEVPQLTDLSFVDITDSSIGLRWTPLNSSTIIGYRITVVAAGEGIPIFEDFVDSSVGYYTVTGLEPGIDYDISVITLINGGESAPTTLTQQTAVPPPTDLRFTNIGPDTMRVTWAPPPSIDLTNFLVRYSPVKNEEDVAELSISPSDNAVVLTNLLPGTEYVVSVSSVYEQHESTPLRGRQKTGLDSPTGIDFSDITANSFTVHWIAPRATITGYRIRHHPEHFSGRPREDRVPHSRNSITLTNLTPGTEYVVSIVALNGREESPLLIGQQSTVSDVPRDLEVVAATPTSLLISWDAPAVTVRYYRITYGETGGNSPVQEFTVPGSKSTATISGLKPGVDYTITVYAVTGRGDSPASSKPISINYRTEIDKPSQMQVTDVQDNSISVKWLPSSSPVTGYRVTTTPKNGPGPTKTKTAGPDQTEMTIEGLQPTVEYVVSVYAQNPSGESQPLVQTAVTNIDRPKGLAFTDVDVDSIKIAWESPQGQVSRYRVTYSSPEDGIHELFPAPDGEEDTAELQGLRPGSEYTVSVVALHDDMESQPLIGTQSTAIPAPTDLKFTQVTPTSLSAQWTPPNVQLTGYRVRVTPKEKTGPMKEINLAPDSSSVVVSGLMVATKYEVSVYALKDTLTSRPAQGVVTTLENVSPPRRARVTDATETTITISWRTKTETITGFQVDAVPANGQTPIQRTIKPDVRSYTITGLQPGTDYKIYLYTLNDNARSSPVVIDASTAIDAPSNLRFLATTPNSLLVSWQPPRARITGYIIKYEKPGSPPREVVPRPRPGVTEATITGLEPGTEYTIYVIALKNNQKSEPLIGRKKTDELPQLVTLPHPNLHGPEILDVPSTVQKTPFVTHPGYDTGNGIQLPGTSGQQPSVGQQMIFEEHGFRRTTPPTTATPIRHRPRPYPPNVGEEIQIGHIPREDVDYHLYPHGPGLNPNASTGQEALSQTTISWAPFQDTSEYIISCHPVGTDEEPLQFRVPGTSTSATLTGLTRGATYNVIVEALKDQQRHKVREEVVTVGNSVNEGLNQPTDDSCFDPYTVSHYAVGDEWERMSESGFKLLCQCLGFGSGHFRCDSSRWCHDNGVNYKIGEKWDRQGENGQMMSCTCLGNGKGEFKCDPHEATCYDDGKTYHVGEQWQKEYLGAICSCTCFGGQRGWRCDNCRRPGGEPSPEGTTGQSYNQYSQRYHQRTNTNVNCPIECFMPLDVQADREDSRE

nonmuscle myosin IIB [3] = target: T2, nonmuscle myosin IIB (human, UniProt P35580 1-1976, limits assumed); experiment: co-immunoprecipitation with anti-HA antibody from human lung fibroblasts, Western blot with anti-myosin IIB
T2 construct: Endogenous protein in lysate of human lung fibroblasts, detected by Western blot with anti-myosin IIB (anti-MYH10) antibody; also called MYO IIB; MYH10
T2 sequence (P35580 whole entry): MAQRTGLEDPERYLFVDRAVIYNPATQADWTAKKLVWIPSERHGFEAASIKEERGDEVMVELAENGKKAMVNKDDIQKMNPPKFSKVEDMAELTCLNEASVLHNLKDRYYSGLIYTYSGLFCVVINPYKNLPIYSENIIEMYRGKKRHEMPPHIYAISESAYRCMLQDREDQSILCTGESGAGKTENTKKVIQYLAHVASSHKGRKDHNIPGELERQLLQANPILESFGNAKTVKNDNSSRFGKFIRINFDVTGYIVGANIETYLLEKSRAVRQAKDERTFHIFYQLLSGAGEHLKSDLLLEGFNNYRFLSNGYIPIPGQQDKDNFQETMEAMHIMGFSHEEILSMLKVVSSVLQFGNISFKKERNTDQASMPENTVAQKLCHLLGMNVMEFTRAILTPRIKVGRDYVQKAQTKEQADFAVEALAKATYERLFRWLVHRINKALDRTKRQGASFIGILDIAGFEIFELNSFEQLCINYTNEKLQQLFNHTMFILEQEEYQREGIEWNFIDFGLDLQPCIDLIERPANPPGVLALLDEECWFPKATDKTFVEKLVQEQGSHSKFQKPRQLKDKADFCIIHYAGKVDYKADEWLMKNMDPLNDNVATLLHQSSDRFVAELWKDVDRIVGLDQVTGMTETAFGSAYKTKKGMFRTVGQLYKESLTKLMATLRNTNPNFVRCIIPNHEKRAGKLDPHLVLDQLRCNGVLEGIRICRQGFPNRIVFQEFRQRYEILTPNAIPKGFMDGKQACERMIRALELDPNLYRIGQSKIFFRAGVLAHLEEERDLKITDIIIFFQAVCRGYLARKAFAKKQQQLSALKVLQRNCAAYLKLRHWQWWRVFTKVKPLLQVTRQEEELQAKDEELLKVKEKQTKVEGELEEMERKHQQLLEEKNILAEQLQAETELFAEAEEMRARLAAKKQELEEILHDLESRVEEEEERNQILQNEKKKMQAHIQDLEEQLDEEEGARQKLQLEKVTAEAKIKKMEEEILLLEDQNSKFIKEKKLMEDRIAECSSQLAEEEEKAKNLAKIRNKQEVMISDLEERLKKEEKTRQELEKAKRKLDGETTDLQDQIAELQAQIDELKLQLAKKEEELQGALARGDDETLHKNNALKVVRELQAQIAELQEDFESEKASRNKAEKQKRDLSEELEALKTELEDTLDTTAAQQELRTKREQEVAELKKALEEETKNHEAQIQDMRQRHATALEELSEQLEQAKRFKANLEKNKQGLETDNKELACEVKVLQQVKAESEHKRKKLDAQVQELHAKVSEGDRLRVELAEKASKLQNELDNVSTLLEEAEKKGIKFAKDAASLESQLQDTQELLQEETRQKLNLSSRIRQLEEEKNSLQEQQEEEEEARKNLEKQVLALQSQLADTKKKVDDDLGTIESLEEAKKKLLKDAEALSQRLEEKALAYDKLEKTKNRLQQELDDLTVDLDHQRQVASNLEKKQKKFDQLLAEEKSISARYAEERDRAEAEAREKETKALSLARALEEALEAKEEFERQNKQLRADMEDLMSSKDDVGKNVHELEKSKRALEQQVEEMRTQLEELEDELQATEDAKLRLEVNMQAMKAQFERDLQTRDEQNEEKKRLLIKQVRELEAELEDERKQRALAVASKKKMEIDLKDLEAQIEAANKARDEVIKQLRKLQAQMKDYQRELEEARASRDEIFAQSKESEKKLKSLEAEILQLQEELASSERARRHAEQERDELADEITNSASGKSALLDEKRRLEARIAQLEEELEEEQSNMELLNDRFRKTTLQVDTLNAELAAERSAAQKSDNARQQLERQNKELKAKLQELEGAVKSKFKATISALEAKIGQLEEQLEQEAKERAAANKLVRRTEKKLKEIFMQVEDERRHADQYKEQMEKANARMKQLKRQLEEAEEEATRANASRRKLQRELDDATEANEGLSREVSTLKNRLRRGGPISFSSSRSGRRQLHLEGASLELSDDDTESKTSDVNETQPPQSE
Protocol: (§4) HA, Western blot analysis using anti-HA antibody as control for immunoprecipitation efficiency of the tagged proteins. (c) Experiment as in (b), but Western blot analysis was performed using anti-myosin IIA antibody (MYO IIA). […] Experiment as in (b), but the lysate was treated with Rnase. A prior to immunoprecipitation (lane 1) or was not treated (lanes 2 and 3). The immunoprecipitate was analyzed with anti-myosin IIB antibody (MYO IIB), anti-fibronectin antibody (FIB; as control for specificity), and anti-HA antibody (HA; as control for precipitation efficiency).

nonmuscle myosin IIA = target: T3, nonmuscle myosin IIA (human, UniProt P35579 2-1960); experiment: co-immunoprecipitation with anti-HA antibody from human lung fibroblasts, Western blot with anti-myosin IIA
T3 construct: Endogenous protein in lysate of human lung fibroblasts, detected with anti-myosin IIA antibody; also called MYO IIA
Protocol: as §4

Molecule | secretion of collagen α1(I) polypeptide into the medium [1] | secretion of collagen α2(I) polypeptide into the medium [1] | secretion/expression of fibronectin [1] | secretion of collagen α1(I) polypeptide into the medium (human lung fibroblasts) | secretion of collagen α2(I) polypeptide into the medium (human lung fibroblasts) | secretion/expression of fibronectin (human lung fibroblasts) | binding result (nonmuscle myosin IIB [3]) | other results
Cc1ccc2c(c1)C(=O)C1(O)CCN(c3ccccc3)C1=N2 (centres unmarked) [blebbistatin] | minimally affecting | abolished | small effect | minimally affecting | reduced | small effect |  | intracellular level of collagen α1(I) polypeptide [1]: unchanged; intracellular level of collagen α2(I) polypeptide [1]: unchanged; intracellular level of collagen α1(I) and α2(I) polypeptides (human lung fibroblasts): unchanged
C[C@@H]1C[C@@H]([C@H](O)CC2CC(=O)NC(=O)C2)C(=O)[C@@H](C)C1 [cycloheximide] |  |  |  |  |  |  |  | collagen α1(I) and α2(I) mRNAs pulled down with nonmuscle myosin IIB (nonmuscle myosin IIB [2]): both collagen mRNAs were pulled down
C=C1[C@@H](C)[C@H]2[C@H](Cc3ccccc3)NC(=O)[C@]23OC(=O)/C=C/[C@H](O)CCC[C@@H](C)C/C=C/[C@H]3[C@@H]1O [cytochalasin B] | no effect | small effect | small effect | diminished | diminished | had an effect |  | 
HA-tagged full-size LARP6 (other, Expressed from adenovirus in human lung fibroblasts and immunoprecipitated from cell lysate with anti-HA antibody; also called HA-tagged LARP6; not shown: HA tag) MAQSGGEARPGPKTAVQIRVAIQEAEDVDELEDEEEGAETRGAGDPARYLSPGWGSASEEEPSRGHSGTTASGGENEREDLEQEWKPPDEELIKKLVDQIEFYFSDENLEKDAFLLKHVRRNKLGYVSVKLLTSFKKVKHLTRDWRTTAHALKYSVVLELNEDHRKVRRTTPVPLFPNENLPSKMLLVYDLYLSPKLWALATPQKNGRVQEKVMEHLLKLFGTFGVISSVRILKPGRELPPDIRRISSRYSQVGTQECAIVEFEEVEAAIKAHEFMITESQGKENMKAVLIGMKPPKKKPAKDKNHDEEPTASIHLNKSLNKRVEELQYMGDESSANSSSDPESNPTSPMAGRRHAATNKLSPSGHQNLFLSPNASPCTSPWSSPLAQRKGVSRKSPLAEEGRLNCSTSPEIFRKCMDYSSDSSVTPSGSPWVRRRRQAEMGTQEKSPGTSPLLSRKMQTADGLPVGVLRLPRGPDNTRGFHGHERSRACV |  |  |  |  |  |  |  | binding result (fibronectin): no binding
HA-tagged RBMS3 (other, UniProt Q6XE24 1-437, looked up, Control protein expressed in human lung fibroblasts; not shown: HA tag) MGKRLDQPQMYPQYTYYYPHYLQTKQSYAPAPHPMAPPSPSTNSSSNNSSNNSSGEQLSKTNLYIRGLPPGTTDQDLIKLCQPYGKIVSTKAILDKNTNQCKGYGFVDFDSPAAAQKAVASLKANGVQAQMAKQQEQDPTNLYISNLPISMDEQELENMLKPFGHVISTRILRDANGVSRGVGFARMESTEKCEVVIQHFNGKYLKTPPGIPAPSEPLLCKFADGGQKKRQNQSKYTQNGRPWPREGEAGMALTYDPTAAIQNGFYSSPYSIATNRMIPQTSITPFIAASPVSTYQVQSTSWMPHPPYVMQPTGAVITPTMDHPMSMQPANMMGPLTQQMNHLSLGTTGTIQSQDRIMILHQLLCQYMTAAAPMQGTYIPQYTPVPPTAVSIEGVVADTSPQTVAPSSQDTSGQQQQIAVDTSNEHAPAYSYQQSKP |  |  |  |  |  |  | no binding | 
HA-tagged LARP6 lacking the C-terminal domain (ΔC-LARP6) (other, Expressed in human lung fibroblasts; also called HA-tagged ΔC-LARP6; C-terminal deletion mutant of LARP6; not shown: HA tag) MAQSGGEARPGPKTAVQIRVAIQEAEDVDELEDEEEGAETRGAGDPARYLSPGWGSASEEEPSRGHSGTTASGGENEREDLEQEWKPPDEELIKKLVDQIEFYFSDENLEKDAFLLKHVRRNKLGYVSVKLLTSFKKVKHLTRDWRTTAHALKYSVVLELNEDHRKVRRTTPVPLFPNENLPSKMLLVYDLYLSPKLWALATPQKNGRVQEKVMEHLLKLFGTFGVISSVRILKPGRELPPDIRRISSRYSQVGTQECAIVEFEEVEAAIKAHEFMITESQGKENMKAVLIGMKPPKKKP |  |  |  |  |  |  | no binding | binding result (nonmuscle myosin IIA): no binding
